Values of other authors, collected in patent US4123523A, “Analgesic and sedative polypeptides” (Imperial Chemical Industries Limited, priority 1976, dated 1978).

System: cat
Details: injected directly into the third ventricle of the cat

**Q.** For “β-endorphin: residues 61-91 of the naturally-occuring lipolytic polypeptide hormone lipotropin (YGGFMTSEKSQTPLVTLFKNAIIKNAYKKGE; Beta-endorphin; UniProt P01189 237-267, looked up)”, which analgesic properties is on record?
**A.** possesses analgesic properties
